The values below come from PubChem BioAssay AID2060493 (Molecular Pharmacology Branch, DTP, NCI, 2025).

Values joined by “and” are separate entries in the source; they are usually repeats but may differ in a detail not shown here. Equal values may be shown once.

As usually defined, the viability, T/C is the ratio of treated to control. The term IC50 denotes the concentration that gives 50% inhibition.

This assay concerns 616215-338-R-J1-PDC tumor spheroids, viability. The assay can be described thus: Anticancer human tumor 616215-338-R-J1-PDC patient-derived colon adenocarcinoma cell line growth inhibition [GQUAD]. As to conditions: spheroids with HUVEC and MSC; for viability, T/C: stronger effect = lower value. From the text:
DNA G-quadruplex Stabilizer Agents in Combinations in Complex Spheroids
A high-throughput screen of multi-cell type tumor spheroids was designed to identify active combinations of DNA G-quadruplex stabilizer agents and targeted small molecules. Complex spheroids include a stromal component modeled by human endothelial cells (HUVEC) and fibroblasts modeled by human mesenchymal stem cells (MSCs). The concentration ranges selected for each drug and investigational agent were based upon clinically achievable concentrations if the clinical Cmax of the agent was known.
Compounds. The drugs and investigational agents: pidnarulex (CX-5461; NSC782164), APTO-253 (NSC789042), BRACO-19 (NSC847499), peposertib (NSC802822), ceralasertib (NSC780249), elimusertib (NSC800525), camonsertib (NSC841442), AZD-1390 (NSC803789), olaparib (NSC753686), talazoparib (NSC767125), ART-558 (NSC835418), sotorasib (NSC818433), MRTX-1133 (NSC836407), SN-38 (NSC673596), topotecan (NSC609699), etoposide (NSC141540), doxorubicin (NSC123127), gemcitabine (NSC613327), 5-fluorouracil (NSC19893), paclitaxel (NSC125973), vemurafenib (NSC761431), panobinostat (NSC761190), R-306465 (JNJ-16241199; NSC773264), adavosertib (NSC754352), TP-3654 (NSC805149), carboplatin (NSC241240), KSQ-4279 (NSC840948), and staurosporine (NSC755774) were obtained from the National Cancer Institute (NCI) Developmental Therapeutics Program Chemical Repository (34). The FDA-approved anticancer drug set is available from the NCI Developmental Therapeutics Program. […] The stock solutions were prepared in dimethyl sulfoxide (DMSO, Sigma-Aldrich, St. Louis, MO, cat. D2650) at 800-fold the tested concentration and stored at -70 degrees C prior to their use. All drugs and investigational agents were tested over a range starting from a high concentration at or near the clinical Cmax and decreasing in half-log increments. If the clinical Cmax for an agent had not been determined, the highest concentration tested was 10 microM.
2.3 Cell Culture. All cells were maintained in an incubator at 37 degrees C and 5% CO2 with 95% humidity. The PDC lines were cultured according to standard operating procedures established by the NCI PDMR. All PDCs were thawed and cultured in Matrigel-coated flasks prepared with a working solution of 1X Ham's F-12 nutrient mix, without supplementation (Invitrogen, cat. 11765054), 100 U/mL penicillin-streptomycin (Invitrogen, cat. 15140122), and 2.5% Matrigel (Corning Inc., cat. 354248) for the first three passages. The 857933-349-R-J2-PDC line was cultured in 6C/Colon 1B media, which includes advanced DMEM/F-12 (Thermo Fisher Scientific, cat. 12634028), 10 mM HEPES (Thermo Fisher Scientific, cat. 15630080), 1X GlutaMAX supplement (Thermo Fisher Scientific, cat. 35050061), 0.1 mg/mL primocin (InvivoGen, cat. ant-pm-2), 10% defined fetal bovine serum, heat inactivated (HyClone Laboratories Inc., cat. SH30070.03HI), 50% L-WRN conditioned media (ATCC, cat. CRL-3276), 1.25 mM N-Acetyl-L-cysteine (Sigma-Aldrich, cat. A9165), 10 mM nicotinamide (Sigma-Aldrich, cat. N0636), 1X B-27 supplement (Thermo Fisher Scientific, cat. 17504044), 1X N-2 supplement (Thermo Fisher Scientific, cat. 17502048), 10 microM Y-27632 dihydrochloride (Tocris Bioscience, cat. 1254), and 50 ng/mL human EGF recombinant protein (Thermo Fisher Scientific, cat. PHG0311). The 485176-168-R4-J1-PDC line was cultured in Panc media, which includes all 6C/Colon 1B media components plus 100 ng/mL human FGF-10 (Thermo Fisher Scientific, cat. 100-26), 500 nM SB-431542 (Selleckchem, cat. S1067), and gastrin (Tocris, cat. 3006).
[…]

Where [1] appears, read: curve of first compound, second compound 0.0316 µM.
[2] abbreviates: curve of first compound, second compound 0.1 µM.
Where [3] appears, read: curve of first compound, second compound 0.316 µM.
Where [4] appears, read: curve of first compound, second compound 1 µM.
Where [5] appears, read: curve of first compound, second compound 3.16 µM.
The mark [6] stands for this setting: curve of first compound, second compound 10 µM.
The mark [7] stands for this setting: second compound 0.0316 µM, first compound 0.0316 µM.
Where [8] appears, read: second compound 0.0316 µM, first compound 0.1 µM.
The mark [9] stands for this setting: second compound 0.0316 µM, first compound 0.316 µM.
Setting [10] is: second compound 0.0316 µM, first compound 1 µM.
The mark [11] stands for this setting: second compound 0.0316 µM, first compound 3.16 µM.
[12] abbreviates: second compound 0.0316 µM, first compound 10 µM.
The mark [13] stands for this setting: second compound 0.1 µM, first compound 0.0316 µM.
The mark [14] stands for this setting: second compound 0.1 µM, first compound 0.1 µM.
Setting [15] is: second compound 0.1 µM, first compound 0.316 µM.
Where [16] appears, read: second compound 0.1 µM, first compound 1 µM.
Where [17] appears, read: second compound 0.1 µM, first compound 3.16 µM.
[18] abbreviates: second compound 0.1 µM, first compound 10 µM.
Setting [19] is: second compound 0.316 µM, first compound 0.0316 µM.
Setting [20] is: second compound 0.316 µM, first compound 0.1 µM.
Setting [21] is: second compound 0.316 µM, first compound 0.316 µM.
Setting [22] is: second compound 0.316 µM, first compound 1 µM.
The mark [23] stands for this setting: second compound 0.316 µM, first compound 3.16 µM.
[24] abbreviates: second compound 0.316 µM, first compound 10 µM.
Setting [25] is: second compound 1 µM, first compound 0.0316 µM.
Setting [26] is: second compound 1 µM, first compound 0.1 µM.
Where [27] appears, read: second compound 1 µM, first compound 0.316 µM.
The mark [28] stands for this setting: second compound 1 µM, first compound 1 µM.
Setting [29] is: second compound 1 µM, first compound 3.16 µM.
[30] abbreviates: second compound 1 µM, first compound 10 µM.
[31] abbreviates: second compound 3.16 µM, first compound 0.0316 µM.
[32] abbreviates: second compound 3.16 µM, first compound 0.1 µM.
The mark [33] stands for this setting: second compound 3.16 µM, first compound 0.316 µM.
[34] abbreviates: second compound 3.16 µM, first compound 1 µM.
The mark [35] stands for this setting: second compound 3.16 µM, first compound 3.16 µM.
Setting [36] is: second compound 3.16 µM, first compound 10 µM.
Setting [37] is: second compound 10 µM, first compound 0.0316 µM.
Setting [38] is: second compound 10 µM, first compound 0.1 µM.
[39] abbreviates: second compound 10 µM, first compound 0.316 µM.
[40] abbreviates: second compound 10 µM, first compound 1 µM.
Where [41] appears, read: second compound 10 µM, first compound 3.16 µM.
[42] abbreviates: second compound 10 µM, first compound 10 µM.
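Further: spheroids exposed to agents for 7 days before readout.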
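Wherever viability, T/C is given: percent viability relative to DMSO vehicle control wells taken as 100%.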

Consider `CC1COCCN1c1cc(-c2ccnn2C)c2ccnc(-c3ccn[nH]3)c2n1` (stereo not given), for which the viability, T/C runs as follows: (compound 0.0316 µM) 98.8% and 101% and 103%; (compound 0.1 µM) 51.8% and 57% and 69.5%; (compound 0.316 µM) 38.8% and 31.3% and 37%; (compound 1 µM) 29.2% and 23.1% and 26.1%; (compound 3.16 µM) 24.5% and 18.4% and 26.3%; (compound 10 µM) 27.6% and 18.9% and 17.4%. Besides, under “curve of compound”, the concentration for half-maximal inhibition (IC50) was 126 nM and 137 nM and 203 nM.
For `CN(C)c1ccc(Nc2c3ccc(NC(=O)CCN4CCCC4)cc3nc3cc(NC(=O)CCN4CCCC4)ccc23)cc1`, the viability, T/C was 105% [middle of 12 runs] (compound 0.0316 µM); 104% [middle of 12 runs] (compound 0.1 µM); 102% [middle of 12 runs] (compound 0.316 µM); 100% [middle of 12 runs] (compound 1 µM); 99.6% [middle of 12 runs] (compound 3.16 µM); 93.9% [middle of 12 runs] (compound 10 µM). The 50% inhibitory concentration (IC50) (compound alone, run of 04/22/2024) was over 10000 nM.
In the case of `C=CCn1c(=O)c2cnc(Nc3ccc(N4CCN(C)CC4)cc3)nc2n1-c1cccc(C(C)(C)O)n1` + CN(C)c1ccc(Nc2c3ccc(NC(=O)CCN4CCCC4)cc3nc3cc(NC(=O)CCN4CCCC4)ccc23)cc1, the IC50 reads like this: under setting [1], 344 nM; under setting [2], 300 nM; under setting [3], 347 nM; under setting [4], 281 nM; under setting [5], 308 nM; under setting [6], 335 nM. Also, the viability, T/C is 108% under setting [7]; 100% under setting [8]; 50.6% under setting [9]; 23% under setting [10]; 12.6% under setting [11]; 11.5% under setting [12]. In addition, the viability, T/C reads like this: under setting [13], 107%; under setting [14], 109%; under setting [15], 46.9%; under setting [16], 23.5%; under setting [17], 13.4%; under setting [18], 12%. Moreover, the viability, T/C is, setting by setting: under setting [19], 105%; under setting [20], 107%; under setting [21], 52.2%; under setting [22], 23.3%; under setting [23], 13.1%; under setting [24], 14.7%. Also, the viability, T/C is 98.2% under setting [25]; 99.5% under setting [26]; 44.1% under setting [27]; 24.4% under setting [28]; 13.7% under setting [29]; 14.3% under setting [30]. In addition, the viability, T/C under setting [31] is 100%; the viability, T/C under setting [32] is 96.9%; the viability, T/C under setting [33] is 46.4%; the viability, T/C under setting [34] is 26%; the viability, T/C under setting [35] is 14.5%; the viability, T/C under setting [36] is 10.6%. Besides, the viability, T/C under setting [37] was 87.9%; the viability, T/C under setting [38] is 90.3%; the viability, T/C under setting [39] was 49%; the viability, T/C under setting [40] was 19.9%; the viability, T/C under setting [41] was 11.9%; the viability, T/C under setting [42] was 3.42%.
For `C#Cc1c(F)ccc2cc(O)cc(-c3ncc4c(N5CC6CCC(C5)N6)nc(OCC56CCCN5CC(F)C6)nc4c3F)c12` (stereo not given) + Cc1cnc(CNC(=O)c2c(=O)c3ccc(N4CCCN(C)CC4)nc3n3c2sc2ccccc23)cn1, the IC50 reads like this: under setting [1], 4510 nM; under setting [2], 422 nM; under setting [3], under 31.6 nM; under setting [4], under 31.6 nM; under setting [5], 43.6 nM; under setting [6], under 31.6 nM. Also, the viability, T/C was 98.8% under setting [7]; 88.4% under setting [8]; 103% under setting [9]; 67.6% under setting [10]; 63.8% under setting [11]; 27.8% under setting [12]. The viability, T/C is, setting by setting: under setting [13], 64.3%; under setting [14], 64.2%; under setting [15], 51.9%; under setting [16], 40.2%; under setting [17], 28.7%; under setting [18], 22.1%. The viability, T/C by setting is: under setting [19], 38.8%; under setting [20], 40.5%; under setting [21], 48.3%; under setting [22], 40.8%; under setting [23], 39.2%; under setting [24], 19%. Moreover, the viability, T/C was 34.7% under setting [25]; 27.1% under setting [26]; 40.9% under setting [27]; 19.8% under setting [28]; 20.8% under setting [29]; 20.4% under setting [30]. In addition, the viability, T/C under setting [31] was 58.3%; the viability, T/C under setting [32] was 27.7%; the viability, T/C under setting [33] is 24.1%; the viability, T/C under setting [34] was 15.6%; the viability, T/C under setting [35] was 18.8%; the viability, T/C under setting [36] was 7.2%. The viability, T/C under setting [37] is 21%; the viability, T/C under setting [38] was 18.5%; the viability, T/C under setting [39] is 22.3%; the viability, T/C under setting [40] was 16.8%; the viability, T/C under setting [41] is 14.8%; the viability, T/C under setting [42] is 14.6%.
`O=C(c1cc(Cc2n[nH]c(=O)c3ccccc23)ccc1F)N1CCN(C(=O)C2CC2)CC1`: the viability, T/C runs as follows: (compound 0.0316 µM) 96.6% and 106% and 92.3%; (compound 0.1 µM) 105% and 99.2% and 101%; (compound 0.316 µM) 98.7% and 104% and 96.1%; (compound 1 µM) 96.9% and 105% and 96.2%; (compound 3.16 µM) 102% and 105% and 98.3%; (compound 10 µM) 67.2% and 66.3% and 73.1%. In addition, for the setting “curve of compound”, the half-maximal inhibitory concentration (IC50) is over 10000 nM.
